Where two headings read alike, the source gives them in different places. Starred links: 1 amine or outer side, 2 acyl side, 3 side chain; linkers in the order of their positions; H or OH if unused. Positions of bridges follow the written chain, without caps; N, C: chain ends. Non-standard residues stand in square brackets, D forms with d. Residues, ends and D or L forms follow the SMILES beside them. Chains are numbered I, II in the order given. ξ: configuration not given here. *: point of attachment. Dolaproine = CO[C@@H]([C@@H]1CCCN1)[C@@H](C)C(=O)O; Dil = CC[C@H](C)[C@H](NC)[C@@H](CC(=O)O)OC; TBMB = c1c(C[*:1])cc(C[*:3])cc1C[*:2]; X2 = O=C(CCCC(=O)[*:2])NCCC(=O)[*:1]; PABC = O=C(OCc1ccc(N[*:1])cc1)[*:2]; X1 = C[C@@H](N*)[C@@H](O)c1ccccc1; ξ1Nal = NC(Cc1cccc2ccccc12)C(=O)O; Cit = NC(=O)NCCC[C@H](N)C(=O)O; NMeV = CN[C@H](C(=O)O)C(C)C; ξY = NC(Cc1ccc(O)cc1)C(=O)O; ξTle = CC(C)(C)C(N)C(=O)O; ξF = NC(Cc1ccccc1)C(=O)O; ξE = NC(CCC(=O)O)C(=O)O; ξD = NC(CC(=O)O)C(=O)O; ξN = NC(=O)CC(N)C(=O)O; ξC = NC(CS)C(=O)O; ξA = CC(N)C(=O)O; Sar = CNCC(=O)O
Key:
[1] = Body weight in HT1080 xenograft model (Example 7); type: in vivo; details: any of the doses tested (1, 3, and 10 mg/kg)
Method: I-1a was evaluated in a HT1080 xenograft model at 1, 3, and 10 mg/kg. Additionally the ability of the binding peptide (the Bicycle+Spacer of I-1a, structure shown in Example 6) to abrogate activity when dosed at a 100-fold excess immediately before treatment with I-1a in the HT1080 xenograft model was assessed.

L540 cells = assay: Cytotoxicity in L540 cells in presence and absence of 1 mM bacitracin (ATPlite, 72 hour exposure); type: cell-based
Method: L540 cells (DSMZ # ACC72, BIC5121), maintained in RPMI-1640 medium (Sigma # R8758)+20% heat-inactivated serum
L540—20 k cells/well: 40% confluent upon dosing.
(§1) Bacitracin=1 mM final concentration. This requires a 10 mM concentration with no DMSO.
Add 100 μL reagent per well. […] Shake for 20 mins before reading luminescence

HT1080 cells = assay: Cytotoxicity in HT1080 cells in presence and absence of 1 mM bacitracin (ATPlite, 24 hour exposure)
Method: HT1080 cells (ATCC, via LGC, BIC918) Maintained in EMEM media (Sigma M2279)+10% FBS (Sigma Code F7524)+4 mM L-Glu (Invitrogen Cat 25030-024)
I-1a and Toxins with Bacitracin—24 or 72 Hour Exposure in 96 Well Plates
DB seeded cells in normal media, 75 μL in 96 well clear plates, ˜24 hours previous.
HT1080—7.5 k cells/well: 50% confluent upon dosing.
Dilute in media 1:42.85=5 μL DMSO dilute+209 μL media=>use 15 μL per well
This gives a 5 μM top concentration for BDCs in assay
Add 10 µL of media±bacitracin (2 plates of each)−leave for 1 hr
as §1
Add 15 μL treatment per well as in Table 19, below.
Seal plates with gas permeable membrane and incubate at 37° C.
Washout HT1080 plates with 2×150 μL PBS at 24 h and add 100 μL fresh media
At t=72 h, equilibrate ATPlite reagent to room temperature. Add 10 ml buffer to each vial of lyophilized substrate. Add 100 μL reagent per well. Seal with PCR seal and cover to protect from light. Shake for 20 mins before reading luminescence

[2] = Plasma stability (LC-MS/MS assay), human plasma; type: in vitro ADME; details: pH 7.4 at 37° C.
Method: I-1a plasma stability studies were conducted in human and mouse plasma.
In vitro plasma stability assay measures the extent of degradation of compounds in plasma.
Peptides or BDCs are incubated at 37° C. in plasma (mouse or human) at low micromolar concentrations for several hours. The stability is quantitatively measured by LC-MS/MS.
Add 8 μL of the 160 μM DMSO stock of peptide or BDC and add 8 μL of 160 μM DMSO stock of 06-34-18-N182 as internal standard to 304 μL of plasma (152 μL*2) for a final concentration of 4 μM (5% DMSO).
Incubate at 37° C. in 100% humidity.
Pipette out 40 μL for 7 timepoints: time 0, 1 h, 2 h, 4 h, 6 h, 8 h, 24 h into a 1.5 mL Eppendorf. Store at −80° C. immediately. (total volume of samples?×40=280 μL).
Add to the sample the extraction solvent. The extraction solvent contains 1 part of water, 3 parts of methanol, and 3 parts of acetonitrile.
To the time course samples add 120 μL of extraction solvent, mix thoroughly with pipette and gently vortex.
Centrifuge for 40 minutes at 14000 rpm at 4° C. […]
It is recommend to follow one transition for the peptide of BDCs to study, and one transition for the internal standard 06-34-18-N182 at the same time. The most relevant Selected Ion Reaction (SIR) and Multiple Reaction Monitoring (MRM) transitions were determined for each peptide or BDC. […]

In the case of `CC[C@H](C)[C@@H]([C@@H](CC(=O)N1CCC[C@H]1[C@H](OC)[C@@H](C)C(=O)N[C@H](C)[C@@H](O)c1ccccc1)OC)N(C)C(=O)[C@@H](NC(=O)[C@H](C(C)C)N(C)C(=O)OCc1ccc(NC(=O)[C@H](CCCNC(N)=O)NC(=O)[C@@H](NC(=O)CCCC(=O)NCCC(=O)N(C)CC(=O)N(C)CC(=O)N(C)CC(=O)N(C)CC(=O)N(C)CC(=O)N(C)CC(=O)N(C)CC(=O)N(C)CC(=O)N(C)CC(=O)N(C)CC(=O)NC(C)C(=O)NC2CSCc3cc4cc(c3)CSCC(NC(=O)C(C)NC(=O)C(Cc3cccc5ccccc35)NC(=O)C(CCC(=O)O)NC(=O)C(CC(N)=O)NC(=O)C(C)NC2=O)C(=O)NC(CCC(=O)O)C(=O)NC(CC(=O)O)C(=O)NC(Cc2ccccc2)C(=O)NC(Cc2ccc(O)cc2)C(=O)NC(CC(=O)O)C(=O)NC(C(C)(C)C)C(=O)NC(C(N)=O)CSC4)C(C)C)cc1)C(C)C` (some centres unmarked) [Compound I-1a] (I: [Sar][Sar][Sar][Sar][Sar][Sar][Sar][Sar][Sar][Sar][ξA][ξC][ξA][ξN][ξE][ξ1Nal][ξA][ξC][ξE][ξD][ξF][ξY][ξD][ξTle][ξC]-NH2 / II: V[Cit][PABC][NMeV]V[Dil][Dolaproine]-X1; linker I:12-I:18-I:25 via TBMB; linker I:N-II:N via X2), the “effect on body weight (in words)” value [1] is reported as “No dose-related effects on body weight”, the IC50 (L540 cells; 72 hour exposure (low/no MT1 expression), no block, read-out: Standard IC50) is reported as 1090 nM and the “Fold shift with bacitracin” value (L540 cells; 72 hour exposure, 1 mM bacitracin vs none) is reported as 2.3. For the same molecule, the IC50 (L540 cells; read-out: IC50 with 1 mM bacitracin, 72 hour exposure, + 1 mM bacitracin) was 2550 nM, the IC50 (HT1080 cells; read-out: IC50 with 1 mM bacitracin, 24 hour exposure, + 1 mM bacitracin (PDI inhibitor)) was 7.3 nM and the IC50 (HT1080 cells; read-out: Standard IC50, 24 hour exposure (high MT1 expression), no block) was 5.3 nM. For the same molecule, the half-life at 1 μM [2] was greater than 24 h and the remaining at 24 h, 1 μM ([2]; read-out: % remained after 24 hours incubation) was 96%.
